≈ marks a conversion by molar mass, not a printed value.

The test system of data set [1] is HeLa (cervix epithelioid carcinoma). Description: Antiproliferative activity against HeLa (XTT colorimetric method). The format is cell-based. The conditions noted are these: Homo sapiens, 72 h treatment. As for the experimental part: The in vitro antiproliferative activity of MDS at 1 µM after 72 h treatments was evaluated by a colorimetric method against the human tumor cell lines HeLa (cervix epithelioid carcinoma) and MCF7 (breast adenocarcinoma). Compounds showing more than 40% inhibition at 1 µM in at least three independent assays were evaluated in a range of concentrations between 0.1 nM and 10 µM for the determination of half-maximal inhibitory concentrations (IC50) (Table 1). Paclitaxel, CA-4, and ABT-751 were used as references.
MCF7 (human breast carcinoma), SKOV-3 (human ovarian carcinoma), OVCAR-3 (human ovarian carcinoma), OVCAR-8 (human ovarian carcinoma), and HeLa (human cervical carcinoma) cell lines were cultured in Dulbecco’s Modified Eagle’s Medium (DMEM) (Gibco, Thermo Fischer Scientific) containing 10% (v/v) heat-inactivated fetal bovine serum (HIFBS) (Lonza-Cambrex, Karlskoga, Sweden), 2 mM L-glutamine (Lonza-Cambrex, Karlskoga, Sweden), 100 μg/mL streptomycin, and 100 IU/mL penicillin (Lonza-Cambrex) at 37 °C in humidified 95% air and 5% CO2. HT-29 (human colon carcinoma), IGROV-1 (human ovarian carcinoma), and A2780 (human ovarian carcinoma) cell lines were cultured in RPMI 1640 medium (Gibco, Thermo Fischer Scientific) supplemented with 10% HIFBS, 100 μg/mL streptomycin, and 100 IU/mL penicillin at 37 °C in humidified 95% air and 5% CO2 atmosphere. The presence of mycoplasma was routinely checked with MycoAlert kit (Lonza-Cambrex) and only mycoplasma-free cells were used in the experiments. Ovarian tumor cell lines were originally acquired from Dr Atanasio Pandiella from Centro de Investigación del Cáncer (CIC), Salamanca, Spain. HeLa, HT-29 and MCF7 tumor cell lines were provided by Dr Faustino Mollinedo from Centro de Investigaciones Biológicas Margarita Salas, Madrid, Spain.
MCF7, HeLa, and HT-29 cell proliferation, when treated with the corresponding compounds, were determined using the XTT (sodium 3’-[1(phenylaminocarbonyl)-3,4-tetrazolium]-bis(4-methoxy-6-nitro)-benzenesulfonic acid hydrate) cell proliferation kit (Roche Molecular Biochemicals, Mannheim, Germany). A freshly prepared mixture of XTT labeling reagent with 0.02% (v/v) PMS (N-methyl-dibenzopyrazine methyl sulfate) electron coupling reagent was added to cells (50 µL/well in 96-well plates, total volume of 160 µL/well). Cells were incubated under standard culture conditions for 4 h (MCF7 and HeLa) or 6 h (HT-29). The absorbance of the formazan product generated was measured at 450 nm using a multi-well plate reader. SKOV-3, OVCAR-3, OVCAR-8, IGROV-1, A-2780 cell proliferation, when treated with the corresponding compound, were determined using MTT (3-(4,5-dimethylthiazol-2-yl)-2,5-diphenyl-2H-tetrazolium bromide) (Sigma-Aldrich, St. Louis, MO, USA). MTT in Phosphate Buffer Saline (PBS) (5 mg/ml) was added to cells (110 µL/well in 24-well plates, total volume of 1110 µL/well). After 1 hour of incubation, the medium was aspirated, and formazan violet crystals were dissolved in dimethyl sulfoxide (DMSO) (500 µL/well). Absorbance was measured at 570 nm in a plate reader (Ultra Evolution, Tecan, Männedorf, Suiza). To determine cell viability, cells in exponential growth phase were seeded (100 µL/well in 96-well plates and 1000 µL/well in 24-well plates) with appropriate cell line concentration (1.5·10^4 cells/mL for MCF7 and HeLa, 3·10^4 cells/mL for HT-29, and 1·10^4 cells/mL for SKOV-3, OVCAR-3, OVCAR-8, IGROV-1, and A-2780) in complete RPMI 1640 or DMEM medium at 37°C and 5% CO2 atmosphere. After 24 h incubation, to allow cells to attach to the plates, all compounds were added at 1 µM concentration and the effect on the proliferation was evaluated 72 h post-treatment. Compounds showing antiproliferative effects at tested concentration were selected for IC50 calculation (50% inhibitory concentration with respect to the untreated controls) from 10^−5 to 10^−10 M concentration. Non-linear curves fitting the experimental data were carried out for each compound. […]

Data set [2] has as its system tubulin (microtubular protein isolated from calf brain). Description: Tubulin Polymerization Inhibition (TPI) assay, turbidity. The format is biochemical. The conditions noted are these: 1.5 mg/mL microtubular protein; for TPI % 10 µM: compound at 10 µM. Here is the method: The effect of all the synthesized compounds on the in vitro tubulin polymerization was evaluated at 10 µM. All the compounds that inhibited polymerization more than 30% were also assayed at 20 µM. IC50 values were calculated for those compounds inhibiting tubulin polymerization by at least 50% at 20 µM (Table 1 and Supplemental Figure S2).
Microtubular protein was isolated from calf brain according to the modified Shelanski method by two cycles of temperature-dependent assembly/disassembly and stored at −80 °C. Before each use, protein concentration was determined by the Bradford method taking BSA as standard.
Tubulin polymerization was monitored using a Helios α spectrophotometer by measuring the increase in turbidity at 450 nm, caused by a shift from 4 °C to 37 °C, which allows the in vitro microtubular protein to depolymerize and polymerize, respectively. The assay was carried out in quartz cuvettes containing 1.5 mg/mL microtubular protein and the ligand (except for control cuvette with only DMSO at the same concentration) in a mixture of 0.1 M MES buffer, 1 mM EGTA, 1 mM MgCl2, 1 mM β-ME, and 1.5 mM GTP at pH 6.7 (final volume 500 µL). Cuvettes were preincubated at 20 °C for 30 min, to allow ligand binding to tubulin, and subsequently cooled on ice for 10 min. Then, the experiment starts at 4 °C to establish the initial baseline. The assembly process was initiated by a temperature shift to 37 °C and the turbidity produced by tubulin polymerization can be measured by an absorbance increase. After reaching a stable plateau, the temperature was switched back to 4 °C to return to the initial absorption values (to confirm the reversible nature of the monitored process and to determine whether or not the microtubular tubular protein has stabilized). The difference in amplitude between the stable plateau and the initial baseline of the curves was taken as the degree of tubulin polymerization for each experiment. Comparison with control curves under identical conditions but without ligands yielded TPI as a percentage value. All compounds were tested at 10 µM concentration. Compounds that inhibited tubulin polymerization by at least 30% at 10 µM were tested at 20 µM. IC50 values were calculated for compounds that inhibit tubulin polymerization by more than 50% at 20 µM. Compounds were dissolved in DMSO, and the final solvent concentration never exceeded 4% (v/v), which has been reported not to interfere with the assembly process. All the measurements were carried out in at least two independent experiments using microtubular protein from different preparations.

Data set [3] can be described thus: Aqueous solubility, saturation shake-flask method, UV absorbance. The settings on record: phosphate buffer, pH 7, aqueous buffer, thermodynamic from solid.
Method: UV absorbance at three maximum absorbance wavelengths of selected compounds was measured after 48 h shaking and subsequent microfiltration.
The aqueous solubility of the sulfonamides was determined using an approach based on the saturation shake-flask method. Tested compounds (1–2 mg) were stirred in pH 7.0 phosphate buffer (300 µL) for 48 h at room temperature. The resulting suspension was filtered over a 45 µm filter to discard insoluble residues, and the concentration in the supernatant was measured by UV absorbance. To determine the concentration, a scan between 270 and 400 nm was performed in a Helios-α UV-320 Spectrophotometer (Thermo-Spectronic, Thermo Fischer Scientific, Waltham, MA, USA) for each tested compound. Then, three maximum wavelengths of absorbance per compound were selected from the previous scan and calibration curves were performed at these three wavelengths. Solubility results are given as the average of the three measurements.

Take `COc1ccc(S(=O)(=O)N(C)c2cc(OC)c(OC)c(OC)c2)cc1` [Compound 2a]: the melting point lay in the range of 123 to 124 °C. The same molecule registered an IC50 in data set [1] of 0.071 µM. For the same molecule, in data set [2], the IC50 was over 20 µM and the “TPI % 10 µM” value is 35%. Further, in data set [3], the concentration in solution (solubility at 48 h) was 27 µg/mL (≈ 73.5 µM).
In turn, `COc1cc(N(C)S(=O)(=O)c2ccc(N(C)C)cc2)cc(OC)c1OC` [Compound 29a] registered a melting point of 134 to 140 °C. This molecule also returned a 50% inhibitory concentration (IC50) in data set [1] of 0.063 µM. Also, in data set [2], the IC50 is over 20 µM and the “TPI % 10 µM” value is 40%. Besides, the solubility at 48 h in data set [3] is 7 µg/mL (≈ 18.4 µM).
The molecule `CCOC(=O)CN(c1cc(OC)c(OC)c(OC)c1)S(=O)(=O)c1ccc(OC)cc1` [Compound 7] gave a melting point of 123 to 127 °C. In addition, the half-maximal inhibitory concentration (IC50) in data set [1] is 0.217 µM. In data set [2], the IC50 was over 20 µM and the “TPI % 10 µM” value was determined as 21%.
`COc1ccc(S(=O)(=O)N(C(C)=O)c2cc(OC)c(OC)c(OC)c2)cc1` [Compound 5] returned a melting point of 190 to 195 °C. Further, in data set [1], the IC50 was determined as 0.287 µM. For the same molecule, in data set [2], the IC50 is over 20 µM and the “TPI % 10 µM” value came out at 0%. The molecule further showed a solubility at 48 h in data set [3] of 38 µg/mL (≈ 96.1 µM).
In the case of `COc1ccc(S(=O)(=O)N(CC(=O)O)c2cc(OC)c(OC)c(OC)c2)cc1` [Compound 8], the melting point fell in the range of 151 to 158 °C. In addition, the IC50 in data set [1] is over 1 µM. Further, in data set [2], the IC50 is over 20 µM and the “TPI % 10 µM” value is on record as 0%.
Turning to `COc1cc(NS(=O)(=O)c2ccc(NC=O)cc2)cc(OC)c1OC` [Compound 36], the values for the IC50 in data set [1] and in data set [2] were over 1 µM and over 20 µM, respectively. In addition, the “TPI % 10 µM” value in data set [2] is recorded as 0%. Moreover, the solubility at 48 h in data set [3] was 27 µg/mL (≈ 73.7 µM).
`COc1cc(NS(=O)(=O)c2ccc([N+](=O)[O-])cc2)cc(OC)c1OC` [Compound 25] had a melting point of 138 to 140 °C. The molecule further registered a half-maximal inhibitory concentration (IC50) in data set [1] of over 1 µM. For the same molecule, in data set [2], the IC50 is over 20 µM and the “TPI % 10 µM” value amounted to 0%.
The corresponding values for `COc1cc(N(CC(=O)O)S(=O)(=O)c2ccc(N(C)C)cc2)cc(OC)c1OC` [Compound 34] are 168 to 170 °C, over 1 µM, over 20 µM and 6%.
The molecule `COc1ccc(S(=O)(=O)Nc2cc(OC)c(OC)c(OC)c2Br)cc1` [Compound 20] gave a 50% inhibitory concentration (IC50) in data set [1] of over 1 µM. In data set [2], the 50% inhibitory concentration (IC50) is over 20 µM and the “TPI % 10 µM” value worked out at 0%. The amount in solution in data set [3] (solubility at 48 h) came to 87 µg/mL (≈ 201 µM).
`COc1ccc(S(=O)(=O)Nc2cc(OC)c(OC)c(OC)c2NC(C)=O)cc1` [Compound 15] showed a half-maximal inhibitory concentration (IC50) in data set [1] of over 1 µM. Besides, in data set [2], the IC50 was over 20 µM and the “TPI % 10 µM” value turned out to be 0%. The same molecule displayed a solubility at 48 h in data set [3] of 230 µg/mL (≈ 560 µM).
For `COc1cc(N(CC#N)S(=O)(=O)c2ccc(N(C)C)cc2)cc(OC)c1OC` [Compound 32], it took 0.055 µM to reach half-maximal inhibition in data set [1] (IC50). Besides, in data set [2], the 50% inhibitory concentration (IC50) was over 20 µM and the “TPI % 10 µM” value worked out at 17%. Further, the concentration in solution in data set [3] (solubility at 48 h) came to 8 µg/mL (≈ 19.7 µM).
In the case of `COc1ccc(S(=O)(=O)N(C)c2cc(OC)c(OC)c(OC)c2NC(C)=O)cc1` [Compound 16], the melting point lay in the range of 205 to 210 °C. In data set [1], this molecule gave an IC50 of over 1 µM. Moreover, in data set [2], the 50% inhibitory concentration (IC50) is over 20 µM and the “TPI % 10 µM” value came out at 0%.
Take `COc1ccc(S(=O)(=O)n2nnc3c(OC)c(OC)c(OC)cc32)cc1` [Compound 23]: in data set [1], the IC50 was over 1 µM. In addition, in data set [2], the half-maximal inhibitory concentration (IC50) was over 20 µM and the “TPI % 10 µM” value is given as 0%. Moreover, the solubility at 48 h in data set [3] came to 41 µg/mL (≈ 108 µM).
The matching figures for `COc1ccc(S(=O)(=O)N(Cc2ccccc2)c2cc(OC)c(OC)c(OC)c2)cc1N` [Compound 45]: 0.025 µM, 3.7 µM, 75% and 14 µg/mL (≈ 30.5 µM).
The corresponding values for `COc1ccc(S(=O)(=O)N(C)c2cc(OC)c(OC)c(OC)c2)cc1N` [Compound 42] are 0.023 µM, 12 µM, 41% and 108 µg/mL (≈ 282 µM).
The corresponding values for `COc1ccc(S(=O)(=O)Nc2cc(OC)c(OC)c(OC)c2N)cc1` [Compound 12] are over 1 µM, over 20 µM, 0% and 158 µg/mL (≈ 429 µM).
`COc1cc(NS(=O)(=O)c2ccc(N(C)C)cc2)cc(OC)c1OC` [Compound 28]: the IC50 in data set [1] came to 0.23 µM. In data set [2], the IC50 was over 20 µM and the “TPI % 10 µM” value stood at 0%. Moreover, the solubility at 48 h in data set [3] worked out at 15 µg/mL (≈ 40.9 µM).
In the case of `COc1ccc(S(=O)(=O)Nc2cc(OC)c(OC)c(OC)c2NC(=O)CNC(=O)OC(C)(C)C)cc1` [Compound 21], the IC50 in data set [1] is over 1 µM. For the same molecule, in data set [2], the concentration for half-maximal inhibition (IC50) was over 20 µM and the “TPI % 10 µM” value was 0%. In data set [3], this molecule yielded a solubility at 48 h of 357 µg/mL (≈ 679 µM).
`COc1ccc(S(=O)(=O)Nc2cc(OC)c(OC)c(OC)c2)cc1N` [Compound 41]: the IC50 in data set [1] stood at 0.26 µM. Besides, in data set [2], the IC50 was over 20 µM and the “TPI % 10 µM” value is 15%. In data set [3], this molecule came in with a solubility at 48 h of 89 µg/mL (≈ 242 µM).
Take `CNc1ccc(S(=O)(=O)N(C)c2cc(OC)c(OC)c(OC)c2)cc1` [Compound 38]: 0.044 µM corresponded to half-maximal inhibition in data set [1] (IC50). Also, in data set [2], the IC50 was found to be 10 µM and the “TPI % 10 µM” value is 47%. The molecule also came in with a solubility at 48 h in data set [3] of 16 µg/mL (≈ 43.7 µM).
The matching figures for `COc1cc(N(C)S(=O)(=O)c2ccc(N)cc2)cc(OC)c1OC` [Compound 27]: over 1 µM, over 20 µM, 0% and 25 µg/mL (≈ 70.9 µM).

One may read the IC50 as the concentration needed to halve the response being measured. High values mean weaker potency in that assay, low ones greater potency in that assay. What is called melting point is the temperature, or range, at which the solid turns liquid. As usually defined, the solubility is the concentration that dissolves in the medium under given conditions. Low readings indicate little dissolved substance, high ones much dissolved substance.

For the origin of these results see paper PMC7918738, “Microtubule Destabilizing Sulfonamides as an Alternative to Taxane-Based Chemotherapy” (International Journal of Molecular Sciences, 2021).
